Test results as given in US5902794A (priority 1997, dated 1999).

What was measured:
[1] = tested on: MCF-7 cells; assay: growth of MCF-7 cells; type: cell-based, human; settings: 5 microM
Description: (§1) Western blotting of p21 protein was performed as described below. […] V is cell lysate from Ha-MuSV-transformed NIH3T3 clone 13-3B-4. M, marker proteins of known molecular weight.
(§2) All breast cancer cell lines were grown in IMEM supplemented with 10% fetal bovine serum, 20 mM HEPES, penicillin-streptomycin, and extra glutamine. Colon carcinoma cell lines were grown in EMEM supplemented with 10% FBS, EMEM, NEAA, HEPES 20 mM, extra glutamine, and penicillin-streptomycin. The cells were grown at 37° C. in humidified incubators in an atmosphere of 5% CO2.
For cell growth experiments, 2-3×10^5 cells/60 mm dish were seeded, and 24 hours later (Day 0), the medium was removed, and fresh medium and the additives were added then and every 48 hours thereafter The compounds of the present invention were added using 100× concentrated stock solutions. At desired times, cell counts in duplicate were performed on a Coulter counter after harvesting the cells with gentle trypsinization.

[2] = tested on: p21 ras protein (MCF-7 cells); assay: Western blotting of p21 ras protein in MCF-7 cells; type: cell-based, human; settings: 5 microM
Description: as §1
Cellular proteins present in cell extracts were separated by 12% SDS-PAGE and transferred to nitrocellulose sheets in transfer buffer (25 mM Tris, 192 mM glycine, 20% methanol, pH 7.4). Nitrocellulose sheets were washed and first incubated with 3% bovine serum albumin in NTE-NP40 (50 mM Tris-HCl, pH 7.5, 150 mM NaCl, 2 mM EDTA, 0.1% Nonidet P-40) for three hours at 37° C. and then sequentially incubated with medium containing p21 monoclonal antiserum Y13-259 directed against the Ha-MuSV-encoded p21 for sixteen hours at 4° C., rabbit anti-rat IgG for 2.5 hours in an ice-water bath, and 5×10^5 cpm/ml ^125 I-protein A for one hour in an ice-water bath. The nitrocellulose sheets were air-dried and exposed to Kodak XAR film for 12-36 hours at -20° C. Comparison of the resulting autoradiograms with others in which normal rat serum was substituted for p21 monoclonal antibody permitted identification of p21. To provide a reference p21, cell lysates were prepared from NIH 3T3 clone 13-3B-4 that had been transfected with Ha-MuSV DNA.
The levels of p21 protein are expressed relative to the p21 level in the untreated control cells, which is set equal to 1.0 O.D.

[3] = tested on: c-myc protein; assay: c-myc protein level, Western blotting (FIG. 9B); type: cell-based, human; settings: growth-arrested by 8-Cl-adenosine (5 micromol/L)
Description: The cells were grown in suspension culture in RPMI 1640 medium supplemented with 10% fetal bovine serum, penicillin (50 U/ml), streptomycin ([…]), 10 mmol/L HEPES buffer, and extra glutamine. […] Surface antigen analysis of HL-60 cells was performed by flow cytometry using a panel of monoclonal antibodies reactive with either myeloid cells or monocytic cells. Terminal deoxynucleotidyl transferase (TdT) was assayed by an immunoperoxidase method using a TdT fluorescence kit. Western blotting of c-myc protein was performed using c-myc antibody 15206D11 (Scripps Clinic and Research Foundation, LaJolla, Calif.).
(§3) M marker proteins of known molecular weight. […] The resulting supernatants were used as cell lysates. […] ND=nondetectable.

[4] = tested on: R^I cAMP receptor protein (Molt-4); assay: R^I cAMP receptor protein in Molt-4 leukemic cells; type: cell-based, human; settings: growth-arrested by 8-Cl-adenosine (5 micromol/L)
From the text: as §3

[5] = tested on: LS-174T colon cancer cells; assay: cell cycle analysis, LS-174T; type: cell-based, human; settings: 8-Cl-adenosine 5 μM, 3 days, two separate experiments
Description: (§4) DNA histograms were generated on FACS II by using the DNA intercalating dye propidium iodide as described by Braylan et al. (Cytometry 2: 337-343, 1982). The percentage of cells in each cycle phase was calculated by using a PDP-11/34 computer and software as described by Neckers et al. (Mol. Cell. Biol. 6: 4244-4250, 1986).
Breast (MCF-7, MDA-MB-231) and colon (LS-174T) cancer cells in
log phase (untreated control) and 3 days after treatment with
(5 μM) were analyzed for DNA content by flow cytometric analysis

[6] = tested on: LS-174T colon cancer line; assay: growth inhibition and release from inhibition, LS-174T (FIG. 3); type: cell-based, human
Description: 1×10^5 cells/60 mm dish were seeded, and 24 hours later (Day 0), the medium was removed and fresh medium and additives were added then and every 48 hours thereafter. […] The triplicate cell count for each experimental point never varied by more than 10%.
as §2

[7] = tested on: breast and colon cancer cell lines; assay: cell cycle progression of breast and colon cancer cell lines; type: cell-based, human; settings: vs untreated control cells
Description: as §4
A determination was made whether the reduced cell proliferation observed in the cancer cell lines after treatment with the compounds of the present invention is due to a specific block in one phase of the cell cycle.

[8] = tested on: murine leukemia L1210; assay: life span of L1210-inoculated BDF1 mice; type: in vivo, mouse; settings: for toxicity remark: ip, 24-hr infusion, day 1-5
From the text: | Infusions by Harvard pumps.

[9] = tested on: LX-1-Lung carcinoma; assay: growth of LX-1 human lung tumor xenograft; type: in vivo; settings: 7 days, staging day
Description: (§5) Based on the findings with the L1210 leukemia model, the efficacy of the 8-Cl-cAMP-Na+ infusions were evaluated in advanced-stage human tumor xenograft models. Tumor fragments of approximately 14 mg were implanted subcutaneously in athymic CD-1 female mice and seven day intraperitoneal infusions of the cyclic nucleotide were initiated three weeks later when mean tumor weights had reached 300-400 mg. Tumor measurements were recorded on the initial day of treatment (staging day) and one day after treatment was completed (staging day+7), and were used to calculate changes in tumor weights.
(§6) *Mean tumor weight per group on staging day.
(§7) $Mean tumor weight per group on staging day +7.
(§8) **Change in test tumor wt (final initial)/initial test tumor wt. Used
(§9) where tumor size was reduced during treatment. Denoted by negative value.
(§10) $$Change in test tumor wt/change in control tumor wt. Used where test
(§11) tumor size increased during treatment. Denoted by positive value.

[10] = tested on: human LoVo colon tumors; assay: subcutaneous infusion in athymic NCR-NU mice bearing human LoVo colon tumors; type: in vivo; settings: s.c. infusion approx. 42 mg/kg/day (1 mg/mouse), seven days
[11] = tested on: MDA-MB-231 mammary carcinoma; assay: growth of MDA-MB-231 human mammary tumor xenograft; type: in vivo; settings: 7 days, staging day
Description: as §5, §6, §7
(§12) **Change in *test tumor wt (finalinitial)/initial test tumor wt. Used
(§13) where test tumor size was reduced during treatment. Denoted by negative
as §10, §11

[12] = tested on: LOVO Colon carcinoma; assay: growth of LOVO human colon tumor xenograft; type: in vivo; settings: 7 days; for Initial Mean Tumor Wt: staging day
Description: as §5, §6, §7, §8, §9, §10, §11

[13] = tested on: two mammary, one lung, and one colon tumor; assay: human tumor xenografts in athymic mice; type: in vivo; settings: seven day intraperitoneal infusions
Description: as §5

[14] = lethality in non-tumored BDF1 mice, single i.p. injection; type: in vivo, mouse; settings: qd, day 1; for Toxic deaths, No. killed/No. treated: ip
From the text: Influence of 8-Cl-cAMP-Na^+ on the life span of non-tumor
BDF1 mice when delivered i.p. by bolus injection

[15] = tested on: MX-1 mammary carcinoma; assay: growth of MX-1 human mammary tumor xenograft; type: in vivo; settings: 7 days, staging day
Description: as §5, §6, §7, §12, §13, §10, §11

Nc1ncnc2c1nc(Cl)n2[C@@H]1O[C@H](CO)[C@@H](O)[C@H]1O [8-Cl-adenosine, reference compound]
growth inhibition, in words [1]: strong growth inhibition | p21 level, in words [2]: did not appreciably affect the p21 level | decrease in c-myc protein level [3]: not observed | decrease in R^I receptor level [4]: not observed | % Cell population in G1 [5]: 72,68% | % Cell population in G2 M [5]: 20,18% | % Cell population in S [5]: 8,14% | activity at 5 µM ([5]; Homo sapiens, LS174T, 72 h, read-out: % Growth): 30.3% | mechanism of growth inhibition / cell viability [6]: cell killing | cell growth during treatment ([6]; 8-Cl-cAMP 10 microM or 8-Cl-adenosine 5 microM): marked reduction in cell growth | growth after cessation of treatment ([6]; after removal of additives): remained growth-inhibited and did not resume their growth up to two weeks | fractions of cells in G1, S and G2/M phases, in words [7]: appreciable increase of the cell population in Gl phase with a marked reduction in S-phase

Nc1ncnc2c1nc(Cl)n2[C@@H]1O[C@@H]2COP(=O)(O)O[C@H]2[C@H]1O [8-Cl-cAMP-Na^+]
mice killed (footnote) ([8]; 288 mg/kg, infused): 2 to 5 mice | toxicity remark ([8]; 288 mg/kg/day): toxic | toxicity remark ([8]; 480 mg/kg/day): toxic | toxicity remark ([8]; 800 mg/kg/day): toxic | lethality (footnote) ([8]; 800 and 480 mg/kg, infused): lethally toxic for all treated mice | Initial Mean Tumor Wt ([9]; 37 mg/kg/day ip infusion): 330 mg | Initial Mean Tumor Wt ([9]; 62 mg/kg/day ip infusion): 327 mg | Initial Mean Tumor Wt ([9]; 104 mg/kg/day ip infusion): 324 mg | toxicity [10]: appeared to be toxic | Initial Mean Tumor Wt ([11]; 37 mg/kg/day ip infusion): 367 mg | Initial Mean Tumor Wt ([11]; 62 mg/kg/day ip infusion): 375 mg | Initial Mean Tumor Wt ([11]; 104 mg/kg/day ip infusion): 367 mg | % ΔT/T or % ΔT/ΔC ([12]; 37 mg/kg/day ip infusion): -01% | Initial Mean Tumor Wt ([12]; 37 mg/kg/day ip infusion): 288 mg | % ΔT/T or % ΔT/ΔC ([12]; 62 mg/kg/day ip infusion): -01% | Initial Mean Tumor Wt ([12]; 62 mg/kg/day ip infusion): 293 mg | Initial Mean Tumor Wt ([12]; 104 mg/kg/day ip infusion): 288 mg | tumor growth during infusion, in words [13]: tumor stasis during treatment | Toxic deaths, No. killed/No. treated ([14]; 22 mg/kg/inj): 0 | Toxic deaths, No. killed/No. treated ([14]; 37 mg/kg/inj): 0 | Toxic deaths, No. killed/No. treated ([14]; 62 mg/kg/inj): 0 | Toxic deaths, No. killed/No. treated ([14]; 104 mg/kg/inj): 0 | mice killed (footnote) ([14]; 173 mg/kg): 2 of 5 | Toxic deaths, No. killed/No. treated ([14]; 173 mg/kg/inj): 2/5 | Toxic deaths, No. killed/No. treated ([14]; 288 mg/kg/inj): 5/5 | Toxic deaths, No. killed/No. treated ([14]; 480 mg/kg/inj): 5/5 | lethality (footnote) ([14]; 480 and 288 mg/kg): lethally toxic for all treated mice | lethality (footnote) ([14]; dosages lower than 173 mg/kg): not lethally | Initial Mean Tumor Wt ([15]; 62 mg/kg/day ip infusion): 337 mg | Initial Mean Tumor Wt ([15]; 104 mg/kg/day ip infusion): 346 mg | Initial Mean Tumor Wt ([15]; 173 mg/kg/day ip infusion): 375 mg
